Results as given in US20200009173A1, “TRIAZOLE-CONTAINING MACROLIDES AND OPHTHALMIC USES THEREFOR” (Tetard, Inc., priority 2017, published 2020).
Values after ≈ are worked out from the molar mass of the structure shown.

Tests used:
Format in all cases: cell-based
[1] = test system: pathogenic bacteria
[2] = test system: Viridans group streptococci; test: MIC, Viridans group streptococci; conditions: N = 51
[3] = test system: Streptococcus agalactiae; test: MIC, Streptococcus agalactiae; conditions: N = 535

Q: Which “activity against AZI resistant strains” value [1] does the source give for `CC[C@H]1OC(=O)[C@@](C)(F)C(=O)[C@H](C)[C@@H](O[C@@H]2O[C@H](C)C[C@H](N(C)C)[C@H]2O)[C@](C)(OC)C[C@@H](C)C(=O)[C@H](C)[C@H]2N(CCCCn3cc(-c4cccc(N)c4)nn3)C(=O)O[C@]12C` [CEM-101, solithromycin] here?
A: active against all AZI resistant strains tested

Q: What about the “activity at acidic pH relative to AZI” value ([1]; acidic pH, including in L. monocytogenes and S. aureus) of the same compound?
A: 100-200 fold

Q: And the “activity relative to conventional macrolides” value ([1]; greater activity than conventional macrolides)?
A: 10 fold

Q: And the “intracellular activity relative to AZI” value ([1]; intracellular)?
A: 10 fold

Q: What about the “activity against phagocytized L. monocytogenes and L. pneumophila relative to conventional macrolides” value ([1]; phagocytized bacteria) of the same compound?
A: 50-100 fold

Q: What about the MIC50 [2] of the same compound?
A: ≤ 0.008 µg/mL

Q: And the MIC90 [2]?
A: 0.06 µg/mL (≈ 0.071 µM)

Q: And the “MIC Range” value [2]?
A: ≤0.008-0.12 ^ μg/mL

Q: And the “MIC Range” value [3]?
A: ≤0.03-0.5 ^ μg/mL

Q: What about the MIC50 ([3]; Streptococcus agalactiae) of the same compound?
A: ≤ 0.03 µg/mL

Q: What about the MIC90 ([3]; Streptococcus agalactiae) of the same compound?
A: ≤ 0.03 µg/mL
